From ChEMBL document CHEMBL1201862, “PubChem BioAssay data set” (2004)
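Briefly, cells in 96-well plates were exposed to five compound concentrations for 48 h, and endpoints were estimated by linear interpolation. GI50: concentration for 50% inhibition of growth.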 The source made the active and inactive calls. No stated cut-off is given here; in the data, active = GI50 up to about 1.1 µM and inactive = higher. Starred links: 1 amine or outer side, 2 acyl side, 3 side chain; linkers in the order of their positions; H or OH if unused. Positions of bridges follow the written chain, without caps; N, C: chain ends. Where a SMILES comes first, the peptide text is derived from it. Non-standard residues stand in square brackets, D forms with d. Residues, ends and D or L forms follow the SMILES beside them. [ ]: non-standard residue; d: D form. ξ: configuration not given here. *: point of attachment. γ4hArg(2R,3R-(OH)2) = N=C(N)NCCC[C@H](N[*:1])[C@@H](O)[C@@H](O)C(=O)[*:2]; Gln(3S,4R-Me2) = C[C@H]([C@H](N)C(=O)O)[C@@H](C)C(N)=O; X50 = CC(C)C[C@H](C)[C@@H](O)[C@@H](C)C(=O)*; X51 = COC(c1ccc(O)cc1)C(N[*:1])C(=O)[*:2]; ξThz(5,5-Me2) = CC1(C)SCNC1C(=O)O; NMeQ = CN[C@@H](CCC(N)=O)C(=O)O; Thr(3ξ) = CC(O)[C@H](N)C(=O)O; NMeA = CN[C@@H](C)C(=O)O; Cbz = O=C(OCc1ccccc1)*; Aib = CC(C)(N)C(=O)O; OBn = c1ccc(CO*)cc1; βAla = NCCC(=O)O

Assays:
Experiment in all cases: NCI anticancer screen, dose series, 48 h
K562 = test system: K562
SN12C = test system: SN12C
NCI-H23 = test system: NCI-H23
Malme-3M = test system: Malme-3M
MDA-N = test system: MDA-N
EKVX = test system: EKVX
OVCAR-4 = test system: OVCAR-4
HT-29 = test system: HT-29
RPMI-8226 = test system: RPMI-8226
OVCAR-8 = test system: OVCAR-8
DU-145 = test system: DU-145
A498 = test system: A498
SK-MEL-28 = test system: SK-MEL-28
LOX IMVI = test system: LOX IMVI
MOLT-4 = test system: MOLT-4
SF-295 = test system: SF-295
CAKI-1 = test system: CAKI-1
IGROV-1 = test system: IGROV-1
NCI-H226 = test system: NCI-H226
NCI-H522 = test system: NCI-H522

| SMILES | GI50 (K562) | GI50 (SN12C) | GI50 (NCI-H23) | GI50 (Malme-3M) | GI50 (MDA-N) | GI50 (EKVX) | GI50 (OVCAR-4) | GI50 (HT-29) | GI50 (RPMI-8226) | GI50 (OVCAR-8) | GI50 (DU-145) | GI50 (A498) | GI50 (SK-MEL-28) | GI50 (LOX IMVI) | GI50 (MOLT-4) | GI50 (SF-295) | GI50 (CAKI-1) | GI50 (IGROV-1) | GI50 (NCI-H226) | GI50 (NCI-H522) |
| --- | --- | --- | --- | --- | --- | --- | --- | --- | --- | --- | --- | --- | --- | --- | --- | --- | --- | --- | --- | --- |
| CC1(C)NC(=O)C(NC(=O)C(CC(=O)OCc2ccccc2)NC(=O)OCc2ccccc2)CCCCNC(=O)CCNC1=O (stereo not given) (Cbz-D(OBn)K[Aib][βAla]; lactam 2-C; configuration not given here) | > 100 µM (inactive) | > 100 µM (inactive) | > 100 µM (inactive) | > 100 µM (inactive) | > 100 µM (inactive) | > 100 µM (inactive) | > 100 µM (inactive) | > 100 µM (inactive) | > 100 µM (inactive) | > 100 µM (inactive) | > 100 µM (inactive) | > 100 µM (inactive) | > 100 µM (inactive) | > 100 µM (inactive) | > 100 µM (inactive) | > 100 µM (inactive) | > 100 µM (inactive) | > 100 µM (inactive) | > 100 µM (inactive) | > 100 µM (inactive) |
| CSCC[C@H](NC(=O)[C@H](CC(C)C)NC(=O)[C@H](Cc1c[nH]cn1)NC(=O)CNC(=O)C1N(C(=O)[C@@H](C)NC(=O)[C@H](Cc2c[nH]c3ccccc23)NC(=O)[C@H](CCC(N)=O)NC(=O)[C@@H](N)CC(N)=O)CSC1(C)C)C(N)=O (stereo not given in full) (H-NQW[dA][ξThz(5,5-Me2)]GHLM-NH2) | > 25 µM (inactive) | > 25 µM (inactive) | > 25 µM (inactive) | > 25 µM (inactive) | > 25 µM (inactive) | > 25 µM (inactive) | > 25 µM (inactive) | > 25 µM (inactive) | > 25 µM (inactive) | > 25 µM (inactive) | > 25 µM (inactive) | > 25 µM (inactive) | > 25 µM (inactive) | > 25 µM (inactive) | > 25 µM (inactive) | > 25 µM (inactive) | > 25 µM (inactive) | > 25 µM (inactive) | > 25 µM (inactive) | > 25 µM (inactive) |
| COC(c1ccc(O)cc1)C1NC(=O)[C@H](CCC(N)=O)N(C)C(=O)[C@H](CC(C)C)NC(=O)[C@@H](CCCN=C(N)N)NC(=O)[C@H](C(C)O)NC(=O)[C@@H](NC(=O)[C@@H](NC(=O)[C@H](O)[C@H](O)[C@H](CCCN=C(N)N)NC(=O)[C@H](C)NC(=O)[C@H](C)[C@H](O)[C@@H](C)CC(C)C)[C@@H](C)[C@@H](C)C(N)=O)[C@@H](C)OC(=O)[C@H](C)N(C)C1=O (stereo partly drawn) (X50-A[γ4hArg(2R,3R-(OH)2)][Gln(3S,4R-Me2)]T[Thr(3ξ)][dR]L[NMeQ][X51][NMeA]; ester 4-C) | 0.0847 µM (active) | 0.149 µM (active) | 0.0944 µM (active) | 0.084 µM (active) | 0.135 µM (active) | 0.0995 µM (active) | 0.134 µM (active) | 0.0904 µM (active) | 0.106 µM (active) | 0.0889 µM (active) | 0.0764 µM (active) | 0.641 µM (active) | 0.223 µM (active) | 0.482 µM (active) | 0.139 µM (active) | 0.0925 µM (active) | 0.102 µM (active) | 0.0746 µM (active) | 0.212 µM (active) | 0.0598 µM (active) |
